According to patent US8802678B2, “Carbonylated (aza) cyclohexanes as dopamine D3 receptor ligands” (Bioprojet, priority 2006, dated 2014):

Structure (SMILES)	melting point [°C]
CC(F)(F)c1cccc(N2CCN(CC[C@H]3CC[C@H](NC(=O)CCCC#N)CC3)CC2)c1 [Example 314, 4-Cyano-N-[4-(2-{4-[3-(1,1-difluoroethyl)phenyl]piperazin-1-yl}ethyl)cyclohexyl]butanamide]	179
N#CCC(=O)N[C@H]1CC[C@H](CCN2CCN(c3ccc4c(c3)OCO4)CC2)CC1 [Example 315, N-{4-[2-(4-Benzo[1,3]dioxol-5-ylpiperazin-1-yl)ethyl]cyclohexyl}-2-cyanoacetamide]	226
N#CCC(=O)N[C@H]1CC[C@H](CCN2CCN(c3ccc4c(c3)OCCO4)CC2)CC1 [Example 316, 2-Cyano-N-(4-{2-[4-(2,3-dihydrobenzo[1,4]dioxin-6-yl)piperazin-1-yl]ethyl}cyclohexyl)acetamide]	208
O=C(CC(F)(F)F)N[C@H]1CC[C@H](CCN2CCN(c3cccc4ncccc34)CC2)CC1 [Example 320, 3,3,3-Trifluoro-N-{4-[2-(4-quinolin-5-ylpiperazin-1-yl)ethyl]cyclohexyl}propanami-de]	207
N#CCCCC(=O)N[C@H]1CC[C@H](CCN2CCN(c3cccc4ncccc34)CC2)CC1 [Example 321, 4-Cyano-N-{4-[2-(4-quinolin-5-ylpiperazin-1-yl)ethyl]cyclohexyl}butanamide]	155
Cc1cc(N2CCN(CC[C@H]3CC[C@H](NC(=O)CC#N)CC3)CC2)ccc1F [Example 322, 2-Cyano-N-(4-{2-[4-(4-fluoro-3-methylphenyl)piperazin-1-yl]ethyl}cyclohexyl)acetamide]	192
N#CCC(=O)N[C@H]1CC[C@H](CCN2CCN(c3ccc(F)c(F)c3)CC2)CC1 [Example 325, 2-Cyano-N-(4-{2-[4-(3,4-difluorophenyl)piperazin-1-yl]ethyl}cyclohexyl)acetamide]	197
CCc1cccc(N2CCN(CC[C@H]3CC[C@@H](NC(=O)CC#N)CC3)CC2)c1 [Example 328, 2-Cyano-N-(4-{2-[4-(3-ethylphenyl)piperazin-1-yl]ethyl}cyclohexyl)acetamide]	101
C[S+]([O-])CC(=O)N[C@H]1CC[C@H](CCN2CCN(c3cccc(C(F)(F)F)c3)CC2)CC1 (stereo partly drawn) [Example 334, 2-Methanesulfinyl-N-(4-{2-[4-(3-trifluoromethylphenyl)piperazin-1-yl]ethyl}cyclohexyl)acetamide]	153
CC(C)c1cccc(N2CCN(CC[C@H]3CC[C@H](NC(=O)CC#N)CC3)CC2)c1 [Example 335, 2-Cyano-N-(4-{2-[4-(3-isopropylphenyl)piperazin-1-yl]ethyl}cyclohexyl)acetamide]	153
Cc1cc(C)cc(N2CCN(CC[C@H]3CC[C@@H](NC(=O)CC#N)CC3)CC2)c1 [Example 336, 2-Cyano-N-(4-{2-[4-(3,5-dimethylphenyl)piperazin-1-yl]ethyl}cyclohexyl)acetamide]	119
CS(=O)(=O)CC(=O)N[C@H]1CC[C@H](CCN2CCN(c3cccc(C(F)(F)F)c3)CC2)CC1 [Example 337, 2-Methanesulfonyl-N-(4-{2-[4-(3-trifluoromethylphenyl)piperazin-1-yl]ethyl}cyclohexyl)acetamide]	158
Cc1ccc(N2CCN(CC[C@H]3CC[C@H](NC(=O)CC#N)CC3)CC2)cc1F [Example 339, 2-Cyano-N-(4-{2-[4-(3-fluoro-4-methylphenyl)piperazin-1-yl]ethyl}cyclohexyl)acetamide]	208
Cc1ccc(N2CCN(CC[C@H]3CC[C@H](NC(=O)CC#N)CC3)CC2)cc1C [Example 340, 2-Cyano-N-(4-{2-[4-(3,4-dimethylphenyl)piperazin-1-yl]ethyl}cyclohexyl)acetamide]	210
N#CCC(=O)N[C@H]1CC[C@H](CCN2CCN(c3cc(F)c(F)c(F)c3)CC2)CC1 [Example 341, 2-Cyano-N-(4-{2-[4-(3,4,5-trifluorophenyl)piperazin-1-yl]ethyl}cyclohexyl)acetamide]	209
N#CCC(=O)N[C@H]1CC[C@H](CCN2CCN(c3cccc(SC(F)(F)F)c3)CC2)CC1 [Example 343, 2-Cyano-N-(4-{2-[4-(3-trifluoromethylsulfanylphenyl)piperazin-1-yl]ethyl}cyclohexyl)-acetamide]	165
CS(=O)(=O)c1cccc(N2CCN(CC[C@H]3CC[C@H](NC(=O)CC#N)CC3)CC2)c1 [Example 351, 2-Cyano-N-(4-{2-[4-(3-methanesulfonylphenyl)piperazin-1-yl]ethyl}cyclohexyl)acetamide]	195
N#CCC(=O)N[C@H]1CC[C@H](CCN2CCN(c3cccc(C(F)F)c3)CC2)CC1 [Example 354, 2-Cyano-N-(4-{2-[4-(3-difluoromethylphenyl)piperazin-1-yl]ethyl}cyclohexyl)acetamide]	185
Cc1c(F)cccc1N1CCN(CC[C@H]2CC[C@H](NC(=O)CCCC#N)CC2)CC1 [Example 356, 4-Cyano-N-(4-{2-[4-(3-fluoro-2-methylphenyl)piperazin-1-yl]ethyl}cyclohexyl)butanamide]	159
N#CCCCC(=O)N[C@H]1CC[C@H](CCN2CCN(c3ccc(F)c(F)c3)CC2)CC1 [Example 357, 4-Cyano-N-(4-{2-[4-(3,4-difluorophenyl)piperazin-1-yl]ethyl}cyclohexyl)butanamide]	141
Cc1cc(N2CCN(CC[C@H]3CC[C@H](NC(=O)CCCC#N)CC3)CC2)ccc1F [Example 358]	160

The remaining lines, values ahead:

melting point [°C]	Structure (SMILES)
218	N#CCC(=O)N[C@H]1CC[C@H](CCN2CCN(c3ccc(Cl)cc3F)CC2)CC1 [Example 359, N-(4-{2-[4-(4-Chloro-2-fluorophenyl)piperazin-1-yl]ethyl}cyclohexyl)-2-cyanoacetamide]
187	N#CCC(=O)N[C@H]1CC[C@H](CCN2CCN(c3ccc(Cl)c(C(F)(F)F)c3)CC2)CC1 [Example 360, N-(4-{2-[4-(4-Chloro-3-trifluoromethylphenyl)piperazin-1-yl]ethyl}cyclohexyl)-2-cyanoacetamide]
150	N#CCCCC(=O)N[C@H]1CC[C@H](CCN2CCN(c3cccc(SC(F)(F)F)c3)CC2)CC1 [Example 363, 4-Cyano-N-(4-{2-[4-(3-trifluoromethylsulfanylphenyl)piperazin-1-yl]ethyl}cyclohexyl)butanamide]
155	N#CCCCC(=O)N[C@H]1CC[C@H](CCN2CCN(c3cccc(C(F)F)c3)CC2)CC1 [Example 364, 4-Cyano-N-(4-{2-[4-(3-difluoromethylphenyl)piperazin-1-yl]ethyl}cyclohexyl)butanamide]
189	N#CCCCC(=O)N[C@H]1CC[C@H](CCN2CCN(c3ccc4c(c3)OCO4)CC2)CC1 [Example 365, N-{4-[2-(4-Benzo[1,3]dioxol-5-ylpiperazin-1-yl)ethyl]cyclohexyl}-4-cyanobutanamide]
95	N#CCCCC(=O)N[C@H]1CC[C@@H](CCN2CCN(c3cccc(C(F)(F)F)c3F)CC2)CC1 [Example 366, 4-Cyano-N-(4-{2-[4-(2-fluoro-3-trifluoromethylphenyl)piperazin-1-yl]ethyl}cyclohexyl)butanamide]
151	N#CCCCC(=O)N[C@H]1CC[C@H](CCN2CCN(c3ccc(Cl)c(Cl)c3)CC2)CC1 [Example 368, 4-Cyano-N-(4-{2-[4-(3,4-dichlorophenyl)piperazin-1-yl]ethyl}cyclohexyl)butanamide]
220	Cc1ccc(N2CCN(CC[C@H]3CC[C@H](NC(=O)CC#N)CC3)CC2)cc1Cl [Example 369, N-(4-{2-[4-(3-Chloro-4-methylphenyl)piperazin-1-yl]ethyl}cyclohexyl)-2-cyanoacetamide]
228	N#CCC(=O)N[C@H]1CC[C@H](CCN2CCN(c3ccc(C#N)cc3)CC2)CC1 [Example 370, 2-Cyano-N-(4-{2-[4-(4-cyanophenyl)piperazin-1-yl]ethyl}cyclohexyl)acetamide]
179	N#CCCCC(=O)N[C@H]1CC[C@H](CCN2CCN(c3cc(Cl)ccc3Cl)CC2)CC1 [Example 371, 4-Cyano-N-(4-{2-[4-(2,5-dichlorophenyl)piperazin-1-yl]ethyl}cyclohexyl)butanamide]
202	COc1ccccc1N1CCN(CC[C@H]2CC[C@H](NC(=O)C3CC=CC3)CC2)CC1 [Example 372, Cyclopent-3-enecarboxylic acid (4-{2-[4-(2-methoxyphenyl)piperazin-1-yl]ethyl}cyclohexyl) amide]
154	O=C(CC1C=CCC1)N[C@H]1CC[C@H](CCN2CCN(c3cccc(C(F)(F)F)c3)CC2)CC1 (stereo partly drawn) [Example 373, 2-Cyclopent-2-enyl-N-(4-{2-[4-(3-trifluoromethylphenyl)piperazin-1-yl]ethyl}cyclohexyl)acetamide]
156	N#CCCCC(=O)N[C@H]1CC[C@H](CCN2CCN(c3cc(F)c(F)c(F)c3)CC2)CC1 [Example 374, 4-Cyano-N-(4-{2-[4-(3,4,5-trifluorophenyl)piperazin-1-yl]ethyl}cyclohexyl)butanamide]
181	CC(=O)c1cccc(N2CCN(CC[C@H]3CC[C@H](NC(=O)CCCC#N)CC3)CC2)c1 [Example 375]
190	N#CCC(=O)N[C@H]1CC[C@H](CCN2CCN(c3ccccc3C#N)CC2)CC1 [Example 376, 2-Cyano-N-(4-{2-[4-(2-cyanophenyl)piperazin-1-yl]ethyl}cyclohexyl)acetamide]
160	N#CCCCC(=O)N[C@H]1CC[C@H](CCN2CCN(c3ccccc3C#N)CC2)CC1 [Example 377, 4-Cyano-N-(4-{2-[4-(2-cyanophenyl)piperazin-1-yl]ethyl}cyclohexyl)butanamide]
185	CCc1cccc(N2CCN(CC[C@H]3CC[C@H](NC(=O)C4CC=CC4)CC3)CC2)c1 [Example 378, Cyclopent-3-enecarboxylic acid (4-{2-[4-(3-ethylphenyl)piperazin-1-yl]ethyl}cyclohexyl) amide]
200	Cc1cccc(N2CCN(CC[C@H]3CC[C@H](NC(=O)C4CC=CC4)CC3)CC2)c1 [Example 379, Cyclopent-3-enecarboxylic acid {4-[2-(4-m-tolylpiperazin-1-yl)ethyl]cyclohexyl}]
